Reference: US20200190593A1, “SPLICEOSOME MUTATIONS AND USES THEREOF” (EISAI R&D MANAGEMENT CO., LTD., priority 2017, published 2020)
Entries after “also recorded” stand apart in the source; their conditions may differ.

Legend:
HCT116 cells = assay: CellTiter-Glo growth inhibition, parental HCT116; format: cell-based; conditions: in HCT116
Procedure: Parental HCT116 cells were obtained from ATCC and cultured in RPMI 1640 medium (Thermo Fisher, GIBCO #11875) supplemented with 10% FBS. Parental Panc0504 cells were obtained from ATCC and cultured in GIBCO RPMI 1640 medium (Thermo Fisher, GIBCO #11875) supplemented with glucose (to 4.5 g/L final), HEPES (10 mM final), sodium pyruvate (1 mM final), human insulin (10 μg/ml final) and 15% FBS. Cell line authentication was achieved by genetic profiling using polymorphic short tandem repeat (STR) loci (ATCC). All cell lines were free of mycoplasma contamination. Lenti-X-293T cells (Clontech Laboratories, Inc. Cat #632180), a cell line for lentiviral packaging, was maintained in Dulbecco's modified Eagle's medium (Thermo Fisher, GIBCO #11965) containing 10% fetal bovine serum and 4 mM L-glutamine. WT PHF5A cDNA was obtained from Genecopoeia and cloned into a pDONR 221 vector (Thermo Fisher). Sequence verified positive clones were cloned into pLenti6.3N5 vector (Thermo Fisher) through LR recombination. Mutagenesis of Y36 and V37 were carried using Agilent Quickchange II kit following manufacturer's recommendation using the PHF5A WT plasmid. All primers used for mutagenesis were designed used the QuikChange Primer Design tool by Agilent. Verified positive clones of PHF5A Y36 or V37 variants were used for lentivirus production using X293T cells. Parental HCT116 cells and Panc0504 cells were then infected with virus containing medium and selected with Blasticidin S (Thermo Fisher) at 10 μg/ml for one week. Engineered cell lines were maintained in the same medium without antibiotics. The following primary antibodies were used at 1:1000 dilution for western blot analysis in LI-COR buffer (LI-COR): α-SF3B1 mouse monoclonal antibody (MBL, D221-3), α-SF3B3 rabbit polyclonal antibody (Protein Tech, 14577-1-AP), α-SF3B4 goat polyclonal antibody (Santa Cruz, 14276), α-SF3B6/p14 rabbit polyclonal antibody (Protein Tech, 12379-1-AP), α-PHF5A rabbit polyclonal antibody (Protein Tech, 15554-1-AP). α-GAPDH rabbit polyclonal antibody (Sigma, G9545) was used at 1:10,000. […]
(§1) For CellTiter-Glo analysis, 500 cells were seeded in each well of a 384-well plate the day before compound addition. […] 72 hours post compound addition; CellTiter-Glo reagent was added to the medium, incubated and assayed on EnVision Multilabel Reader (PerkinElmer). The luminescence value from each treatment sample was normalized to the average value of the respective DMSO control. […] For heatmap summarization of IC50 shifts, IC50 value were extracted from dosage response curves and the fold changes of IC50 values in PHF5A variants expressing lines over that of the WT lines were calculated and plotted using TIBCO Spotfire software. […]

[1] = test system: HCT116 resistant clones carrying SF3B1 (R1074H, V1078A/I) or PHF5A Y36C mutations; assay: CellTiter-Glo growth inhibition profiling of E7107/herboxidiene resistant HCT116 clones; format: cell-based; conditions: 72 hour CellTiter-Glo, HCT116 resistant clones vs parental
Procedure: 2.5 million HCT116 cells were seeded in each 10 cm dish and treated with indicated dosages of splicing modulators for 2 weeks. Compounds were refreshed every 4 days. When needed, confluent dishes were split 1:3 and cells were allowed to recover overnight without splicing modulator treatment after re-seeding. At the end of the compound selection period, surviving individual clones were picked and transferred to 12-well plates. Individual resistant clones were further expanded without splicing modulator treatment and 1 million cells from each clone were pelleted for genomic DNA extraction using the DNeasy Blood & Tissue Kit from Qiagen. Whole exome sequencing (WXS) libraries were generated by Novogene Corporation using Agilent SureSelect Human All Exon V6 kit and sequenced on Illumina HiSeq platform. 12G raw data were gathered for each sample. WXS reads were then aligned to hg19 by BWA-MEM (Shi et al., Nature biotechnology 33, 661-7 (2015)) and somatic mutations were identified with MuTect2 (Schenone et al., Nature chemical biology 9, 232-40 (2013)) through Sentieon pipeline (Wacker et al., Nature chemical biology 8, 235-7 (2012)) by pairing resistant clone with parental cell lines. As the resistant clones for WXS were selected, the allele frequencies for the mutations which are responsible for the resistance should be high. Non-silent mutations (among the H3 curated spliceosome genes) with allele frequency higher than 0.2 were focused on.
For CellTiter-Glo analysis, 500 cells were seeded in each well of a 384-well plate the day before compound addition. An 11 part serial dilution was used starting with a top final dosage of 10 μM for ten additional doses. DMSO percentage was maintained throughout and a DMSO only control was included. 72 hours post compound addition; CellTiter-Glo reagent was added to the medium, incubated and assayed on EnVision Multilabel Reader (PerkinElmer). The luminescence value from each treatment sample was normalized to the average value of the respective DMSO control. The dosage response curve plots were generated using Graphpad Prism 6 and fit using nonlinear regression analysis and the log (inhibitor) vs. response—Variable slope (four parameters). For heatmap summarization of IC50 shifts, IC50 value were extracted from dosage response curves and the fold changes of IC50 values in PHF5A variants expressing lines over that of the WT lines were calculated and plotted using TIBCO Spotfire software. For IC50s greater than the top dosage, the values were arbitrarily set at 10 μM. Unsupervised clustering analysis was performed in TIBCO Spotfire using the following default parameters: Clustering method: UPGMA; Distance measure: Euclidean; Ordering weight: Average value; Normalization: (None); Empty value replacement: Constant value: 0.

[2] = test system: PHF5A Y36C over-expressing PANC0504 cells; assay: Growth inhibition in PANC0504 cells over-expressing PHF5A Y36C; format: cell-based
Procedure: Parental HCT116 cells were obtained from ATCC and cultured in RPMI 1640 medium (Thermo Fisher, GIBCO #11875) supplemented with 10% FBS. Parental Panc0504 cells were obtained from ATCC and cultured in GIBCO RPMI 1640 medium (Thermo Fisher, GIBCO #11875) supplemented with glucose (to 4.5 g/L final), HEPES (10 mM final), sodium pyruvate (1 mM final), human insulin (10 μg/ml final) and 15% FBS. Cell line authentication was achieved by genetic profiling using polymorphic short tandem repeat (STR) loci (ATCC). All cell lines were free of mycoplasma contamination. […]
as §1

[3] = test system: MCL1 splicing (ES/IR events) in PHF5A WT expressing HCT116 cells; assay: Taqman gene expression analysis of MCL1 isoforms, PHF5A WT cells; format: cell-based; conditions: 4 hour treatment
Procedure: (§2) 8000 cells of indicated genotypes were seeded in each well of 96-well plate and allowed to settle overnight. On the second day, 11 points serial dilution (1:4 fold dilution across) of indicated compound with a top dosage of 10 μM final was added to the culturing medium. 4 hour post compound addition, culturing medium was decanted and washed once with PBS. PBS was then decanted completely from the plate and Lysis buffer (plus DNase I) from TaqMan Gene Expression Cells-to-CT Kit (Thermo Fisher, cat # AM1729) was added according to the manual. After 5 mins incubation at room temperature on the shaker, stop solution was added to each well and incubated for 2 min. Reverse transcription was set up immediately using the Cells-to-CT Kit and cDNAs were used for quantitative real time PCR analysis using Viia7 (Thermo Fisher). Each reaction is multiplexed with a FAM labelled probe targeting specific target gene splicing isoforms and a VIC labelled probe targeted 18S rRNA as loading control. Therefore, the FAM Ct value in each well was first normalized to the VIC Ct value in the same well before further normalization to the FAM/VIC ratio of DMSO treated control samples to calculate fold change over DMSO. Graphs were generated using Graphpad Prism 6, n=2. Taqman gene expression probes used in these assays are: […]

[4] = test system: MCL1 splicing (ES/IR events) in PHF5A Y36C expressing HCT116 cells; assay: Taqman gene expression analysis of MCL1 isoforms, PHF5A Y36C cells; format: cell-based; conditions: PHF5A-Y36C cells compared to WT, increasing dosage
Procedure: as §2

[5] = test system: global splicing in PHF5A WT expressing HCT116 cells; assay: Whole transcriptome RNA-seq differential splicing, PHF5A WT cells; format: cell-based
Procedure: (§3) Either PHF5A WT or Y36C mutant overexpressing cells were treated with either DMSO or E7107 (100 nM and 10 μM) for 6 hours in quintuplicate before lysed in TRIzol reagent (Thermo Fisher). After phase separation, top aqueous phase was further processed using MagMAX™-96 Total RNA Isolation Kit (Thermo Fisher, AM1830) for RNA extraction. RNA quality was assessed using Agilent tapestation with RNA screen tape. RNA-seq libraries were prepared by Beijing Genomic Institute (BGI) and sequenced on Illumina Hiseq 4000 for 6G clean reads per sample. RNA-seq reads were aligned to hg19 by STAR (Dobin et al., Bioinformatics 29, 15-21 (2013)) and raw junction counts generated by STAR were used for calculating percent spliced in (PSI) to quantify splice junction usage relative to all other splice junctions that share the same splice site as described before (Darman et al., Cell reports 13, 1033-45 (2015)). Differential PSI were assessed between a pair of sample groups using moderated t-test defined in limma package (Smyth, Statistical applications in genetics and molecular biology 3, Article3 (2004)) in Bioconductor. The statistical p-values were corrected using the Benjamini-Hochberg procedure and q-values less than or equal to 0.05 were considered statistically significant. Gene IDs associated with significant splicing changes upon E7107 treatment as compared to DMSO in either PHF5A WT or Y36C cells were used for generation of the Venn Diagram using online tool (http://bioinformatics.psb.ugent.be/webtools/Venn/). PHF5A WT or Y36C specific genes identified from the Venn Diagram analysis were then subject to Gene Set Enrichment Analysis (GSEA) (http://software.broadinstitute.org/gsea/msigdb/annotate.jsp) using the Kyoto Encyclopedia of Genes and Genomes (KEGG) pathway database.
The number of reads which cover the splice junction which excludes a given cassette exon (exon skipping reads) were compared with both the number of spliced reads which share its 3′ splice site yet have an alternative 5′ splice site bordering the cassette exon (exon inclusion reads) and the number of reads which cross the exon-intron boundary at that same 3′ splice site (intron retention reads.) These counts were summed and their fractions from the percent spliced in (PSI) for the exon skipping event, the exon inclusion event, and the intron retention event, respectively, at that locus. The PSI for all significant exon skipping events derived from the comparison between 100 nM E7107 treatment in PHF5A Y36C cells and the respective DMSO controls (3883 events) and the PSI for the intron retention junction at the same locus were plotted. For all other treatments, the PSI of the exon skipping junction and the intron retention junction for each locus were plotted in the same order. PSI is averaged over samples in quintuplicate.

[6] = test system: global splicing in PHF5A Y36C expressing HCT116 cells; assay: Whole transcriptome RNA-seq differential splicing, PHF5A Y36C cells; format: cell-based
Procedure: as §3, with “Gene IDs associated with significant splicing changes upon E7107 treatment as compared to DMSO in either PHF5A WT or Y36C cells were used for generation of the Venn Diagram using online tool (http://bioinformatics.psb.ugent.be/webtools/Venn/). PHF5A WT or Y36C specific genes identified from the Venn Diagram analysis were then subject to Gene Set Enrichment Analysis (GSEA) (http://software.broadinstitute.org/gsea/msigdb/annotate.jsp) using the Kyoto Encyclopedia of Genes and Genomes (KEGG) pathway database.” left out

SF3B1 R1074H = molecular target: T1, SF3B1 R1074H (Homo sapiens, UniProt O75533+Q7RTV0, R1074H); conditions: Yokoi et al. 2011; cited from earlier work
T1 construct: endogenous in cells; WiDr clones in the cited Yokoi et al. work

| Compound | GI50 (HCT116 cells; Homo sapiens, HCT-116) [nM] | resistance conferred by mutations in resistant clones (growth inhibition profiling) [1] | resistant phenotype upon PHF5A Y36C over-expression [2] | dose-dependent induction of MCL1 ES and IR events [3] | other results |
| --- | --- | --- | --- | --- | --- |
| CC[C@H](O)[C@@H](C)[C@H]1O[C@@H]1C[C@@](C)(O)/C=C/C=C(\C)C1OC(=O)C[C@H](O)CC[C@@](C)(O)[C@@H](OC(=O)N2CCN(C3CCCCCC3)CC2)/C=C/[C@@H]1C (stereo partly drawn) [Compound E7107] | 1.5 | SF3B1-R1074H mutation conferred the most robust resistance | partial resistant phenotype | “earlier” induction of MCL1 ES events than IR events at lower doses | MCL1-S production (ES events) [4]: enhanced to a higher level; number of introns with induced aberrant splicing ([5]; E7107, FIG. 4A): approximately 20,000; number of the 3883 Y36C related ES junctions showing reduced ES PSI and increased IR PSI in WT cells ([5]; E7107 treated WT vs Y36C cells): 2470; share of Y36C related ES junctions showing reduced ES PSI and increased IR PSI in WT cells ([5]; E7107 treated WT vs Y36C cells): ~64%; differential splicing events vs DMSO ([5]; PHF5A WT cells, 100 nM E7107): intron-retention (IR) events were predominant; MCL1 isoform events in RNA-seq sashimi plots ([5]; PHF5A WT cells, E7107 treatment): IR was the dominant event observed; differential splicing events vs DMSO ([6]; 100 nM E7107): the overall amount of IR events and their average fold change were greatly reduced; also recorded: the number of compound induced exon-skipping (ES) events was increased; MCL1 isoform events in RNA-seq sashimi plots ([6]; E7107 treatment): mainly ES events were observed yielding the MCL1-S form; effect of SF3B1 R1074H substitution on compound activity (SF3B1 R1074H): almost completely abolishes the splicing-modulating and anti-proliferative effects |
| CC(C)C[C@H](NC(=O)[C@H](Cc1ccccc1)NC(=O)c1cnccn1)B(O)O [bortezomib] |  | did not affect the cell lines sensitivity | not |  |  |
| CNC(=O)O[C@@H](C)/C=C\C(=O)N[C@H]1CC[C@@H](C/C=C(C)/C=C/[C@@H]2C[C@]3(CO3)CC(C)(C)O2)CC1 [sudemycin D6] | 149 | SF3B1-R1074H mutation also conferred better resistance |  | IR events were not observed |  |
| sudemycin D6 |  | show resistance to the Y36C clone |  |  |  |
| CO[C@]1(C)C[C@@]2(CO2)[C@H](O)[C@@H](/C=C/C(C)=C/C[C@@H]2O[C@H](C)[C@H](NC(=O)/C=C\[C@H](C)OC(C)=O)C[C@@H]2C)O1 [spliceostatin A] |  | SF3B1-R1074H mutation also conferred better resistance; also recorded: show resistance to the Y36C clone |  |  | GI50 (HCT116 cells): 0.76 nM |
| CO[C@H]([C@@H](C)[C@H]1O[C@]1(C)C[C@H](C)/C=C/C=C(\C)[C@H]1O[C@@H](CC(=O)O)CC[C@@H]1C)[C@@H](C)O [herboxidiene] | 7.6 | PHF5A-Y36C mutation rendered more resistance |  | even more pronounced effect |  |
